Here are results for six compounds from US9540373B2, “Substituted spirocycles” (Boehringer Ingelheim International GmbH, priority 2014, dated 2017).

Series [1] relates to neutrophil elastase activity in U937 cells. The experiment in a line: Determination of neutrophil elastase activity in U937 cytosolic lysate preparation after incubation with test compound. Type of series: cell-based. The conditions noted are these: Homo sapiens, U-937; U937 cells incubated 48 hours with compound, NE activity in lysate; read-out: Reduction of NE-activity in U937 cells IC50. The procedure: Determination of Neutrophil Elastase Activity in U937 Cytosolic Lysate Preparation after Incubation with Test Compound Materials:
24 well Nunclon cell culture plates (No. 142475) and 96 well plates (No. 267245) were from Nunc.
Dimethylsulfoxid (DMSO) was from Sigma (Prod. No. D8418). Nonidet-P40 (NP40) was from USBiological (Prod. No. N3500)
Substrate, specific for Neutrophil elastase, was from Bachem (MeOSuc-Ala-Ala-Pro-Val-AMC; Prod. No. I-1270).
Human neutrophil elastase was from Calbiochem (Prod. No. 324681)
Tris-buffer (100 mM Tris; 1M NaCl; pH 7.5)
Tris-buffer+HSA 0.1%; Human Serum Albumin from Calbiochem (Cat#. 126658)
Serine-protease buffer (20 mM Tris; 100 mM NaCl; pH 7.5)+0.1% HSA
Serine protease lysis buffer: 20 mM Tris-HCl; 100 mM NaCl pH 7.5; +0.2% Nonidet-P40;
PBS: phosphate buffered saline, without Ca and Mg, from Gibco
U937 from ECACC (Cat. No. 85011440) cultured in suspension at 37° C. and 5% CO2.
Cell density: 0.2-1 Mio. Cells/ml.
Medium: RPMI1640 GlutaMAX (No. 61870) with 10% FCS from Gibco
Cell Seeding and Treatment:
Compounds in 100% DMSO were diluted in Medium (−FCS) with 10% DMSO and further diluted according to the experiment planned.
20 μl of the compound solution was transferred in the respective wells of the 24 well plate and diluted with 2 ml cell suspension/well containing 1×10^5 cells/ml (final concentration of DMSO=0.1%). Compound dilution factor=100
Compounds (up to 7 concentrations) were tested in triplicates with 3 wells for the DMSO 0.1% control, incubated for 48 hours without medium change at 37° C., 5% CO2 and 95% relative humidity.
Cell Harvesting and Cell Lysate:
Transfer the cell suspension in 2 ml 96 well assay block. Separate cells from medium by centrifugation (500×g; 10 min; RT); discard the supernatant. Resuspend in 1 ml PBS; centrifugation (500×g; 10 min; RT); wash cells twice with PBS. Add 80 μl Serine protease lysis buffer (ice cold) to the cell pellet; resuspend the pellet and store on ice for 10 minutes. Remove debris by centrifugation at 1000×g for 10 min at 4° C. Transfer 80-100 μl lysate supernatant in 96 well plate and store immediately at −80° C.
Neutrophil Elastase Activity Assay:
Frozen lysates were thaw at 37° C. for 10 minutes and stored on ice. Protein content was determined with Bradford protein assay. Lysates were diluted to 0.2-0.5 mg/ml protein in serine protease buffer+HSA.
Standard: NE (100 μg/ml stock solution in Tris-buffer; stored at −80° C.) was diluted in Tris-buffer+HSA to 750 ng/ml, and further serially diluted 1:2 for the standard curve. Buffer, blank, standard and lysate samples were transferred into 384 well plate
Blank: 5 μl Tris-buffer+10 μl Serine protease buffer+5 μl Substrate
Standard: 5 μl Tris-buffer+10 μl NE (diff. conc.)+5 μl Substrate
Lysate: 5 μl Tris-buffer+10 μl Lysat+5 μl Substrate
The increase in fluorescence (Ex360 nm/Em 460 nm) is determined after 30 minutes with a Molecular Device Spectramax M5 Fluorescence Reader. The result is interpolated to ng/mg lysate protein using excel formula functions. Percent inhibition in the compound-treated lysate samples is calculated relative to the DMSO-treated control-sample (100−(compound-sample*100)/control-sample)
A test compound will give values between 0% and 100% inhibition of neutrophil elastase. IC50 is calculated using Graphpad Prism; nonlinear fitting (log(inhibitor) vs. response—Variable slope). The IC50 value is interpolated as the concentration of test compound which leads to a neutrophil elastase activity reduction of 50% (relative to the DMSO-treated control).

The target in series [2] is recombinant human DPPI (Cathepsin C) (Homo sapiens (Human), UniProt P53634). The experiment in a line: Inhibition of human DPPI (Cathepsin C). It counts as biochemical. The conditions noted are these: recombinant human DPPI, substrate Gly-Arg-AMC, pH 6.0; read-out: Inhibition of DPPI IC50. The procedure:
Inhibition of Human DPPI (Cathepsin C)
The analysis of the data was performed by calculating the percentage of fluorescence in the presence of test compound in comparison to the fluorescence of the vehicle control after 20 subtracting the background fluorescence using the following formula: (RFU(sample)−RFU(background))*100/(RFU(control)−RFU(background))
Data from these calculations were used to generate IC50 values for inhibition of DPPI, respectively.

Series [3] can be described thus: Determination of metabolic stability with human liver microsomes. Type of series: in vitro ADME. The note with it: pH 7.6; pooled human liver microsomes, 1 mg/ml protein, 1 μM compound, 37° C., NADPH; read-out: In vitro stability in human liver microsome incubations t1/2. The procedure:
Determination of Metabolic Stability with Human Liver Microsomes
The metabolic degradation of the test compound is assayed at 37° C. with pooled human liver microsomes. The final incubation volume of 100 μl per time point contains TRIS buffer pH 7.6 (0.1 M), magnesium chloride (5 mM), microsomal protein (1 mg/ml) and the test compound at a final concentration of 1 μM. Following a short preincubation period at 37° C., the reactions are initiated by addition of beta-nicotinamide adenine dinucleotide phosphate, reduced form (NADPH, 1 mM) and terminated by transferring an aliquot into acetonitrile after different time points. Additionally, the NADPH-independent degradation is monitored in incubations without NADPH, terminated at the last time point. The [%] remaining test compound after NADPH independent incubation is reflected by the parameter c (control) (metabolic stability). The quenched incubations are pelleted by centrifugation (10′000 g, 5 min.) An aliquot of the supernatant is assayed by LC-MS/MS for the amount of parent compound.
The half-life (t1/2 INVITRO) is determined by the slope of the semilogarithmic plot of the concentration-time profile. The intrinsic clearance (CL_INTRINSIC) is calculated by considering the amount of protein in the incubation: CL_INTRINSIC [μl/min/mg protein]=(ln 2/(half-life [min]*protein content [mg/ml]))*1′000.
Background: Liver microsomes are vesicles of endoplasmic reticulum, rich in cytochrome P450 enzymes.

Series [4] relates to neutrophil elastase activity in BALF cell lysate. As to the kind of experiment: Target engagement mouse model: neutrophil elastase activity in BALF cell lysate after LPS challenge. It counts as in vivo. The note with it: female Crl:NMRI mice, 0.5 mg/kg bid for 7 days, oral, LPS inhalation challenge. The procedure: Target Engagement Mouse Model Compound Treatment:
To monitor the effect of the test compounds on neutrophil elastase activity in peripheral neutrophils, female Crl:NMRI mice were treated as follows:
Group 1 (6 animals): 0.5 mg/kg test compound in 0.5% Natrosol (pH 2-3)
Group 2 (6 animals): 0.5% Natrosol (pH 2-3)
Group 3 (2 animals): 0.5% Natrosol (pH 2-3)
Test compounds or Natrosol solution were applied on Monday to Friday at 7:00 am and 4:00 pm each day of the first week of the study and on Monday and Tuesday (7:00 am and 4:00 pm) the second week. Test compounds or Natrosol were applied orally.
LPS Challenge and Bronchioalveolar Lavage Preparation: […]
4 hours after the LPS challenge a bronchioalveolar lavage using 2×1 ml Hank's salt solution per animal was prepared from all animals and the cell numbers in the lavage fluid determined using a Sysmex XT-1800i. […]
NE activity in the BALF (bronchioalveolar lavage fluid) cell lysate was measured using the fluorescent NE substrate MeOSuc-Ala-Ala-Pro-Val-AMC (Bachem): 10 μl cell lysate were mixed with 5 μl assay buffer (20 mM Tris pH 7.5, 100 mM NaCl, 0.1% human serum albumin) and 5 μl substrate (1 mM in assay buffer) in a 384 well plate (Optiplate 384f, PerkinElmer). The reaction mixture was incubated for 60 min at room temperature and the fluorescence measured (360 nm excitation, 460 nm emission). […]

What is called IC50 is the concentration that gives 50% inhibition.

recombinant human DPPI (Cathepsin C), sequence (P53634 231-394): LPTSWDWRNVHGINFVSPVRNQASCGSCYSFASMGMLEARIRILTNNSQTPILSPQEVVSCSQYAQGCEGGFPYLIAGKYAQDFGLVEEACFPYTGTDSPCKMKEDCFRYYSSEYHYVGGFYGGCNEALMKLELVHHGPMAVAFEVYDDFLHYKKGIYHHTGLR
recombinant human DPPI (Cathepsin C), sequence (P53634 25-134): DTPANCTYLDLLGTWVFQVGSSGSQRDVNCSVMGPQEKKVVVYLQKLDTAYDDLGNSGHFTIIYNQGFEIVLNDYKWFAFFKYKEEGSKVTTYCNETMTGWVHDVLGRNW
recombinant human DPPI (Cathepsin C), sequence (P53634 395-463): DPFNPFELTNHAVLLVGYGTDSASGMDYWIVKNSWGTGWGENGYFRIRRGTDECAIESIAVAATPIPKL

Turning to `N#C[C@H](Cc1ccc(-c2ccc3c(c2)C2(CCN(C4COC4)CC2)OC3)cc1F)NC(=O)[C@H]1N[C@@H]2CC[C@H]1C2` [Example 1, (1S,2S,4R)—N-[(1S)-1-cyano-2-[2-fluoro-4-[1′-(oxetan-3-yl)spiro[1H-isobenzofuran-3,4′-piperidine]-5-yl]phenyl]ethyl]-3-azabicyclo[2.2.1]heptane-2-carboxamide], the IC50 in series [1] turned out to be 1 nM; in series [2] it was 1.1 nM. In series [3], the half-life at 1 μM is greater than 2.17 h. Moreover, the “Inhibition of neutrophil elastase activity in BALF lysate after the pretreatment with Cathepsin C inhibitor” value in series [4] was 96%.

Consider `N#C[C@H](Cc1ccc(-c2cc3c(cn2)COC32CCN(C3COC3)CC2)cc1F)NC(=O)[C@H]1N[C@@H]2CC[C@H]1C2` [Example 23, (1S,2S,4R)—N-[(1S)-1-cyano-2-[2-fluoro-4-[1′-(oxetan-3-yl)spiro[3H-furo[3,4-c]pyridine-1,4′-piperidine]-6-yl]phenyl]ethyl]-3-azabicyclo[2.2.1]heptane-2-carboxamide], for which the results for the IC50 in series [1] and in series [2] were 7.5 nM and 5 nM, respectively. Also, in series [3], the half-life at 1 μM was greater than 2.17 h.

With `N#C[C@H](Cc1ccc(-c2ccc3c(n2)C2(CCN(C4COC4)CC2)OC3=O)cc1F)NC(=O)[C@H]1N[C@@H]2CC[C@H]1C2` [Example 24], the IC50 was 6 nM in series [1] and 2.7 nM in series [2]. The half-life at 1 μM in series [3] is greater than 2.17 h.

For the compound `N#C[C@H](Cc1ccc(-c2ccc3c(n2)C2(CCN(C4COC4)CC2)OC3)cc1F)NC(=O)[C@H]1N[C@@H]2CC[C@H]1C2` [Example 25, (1S,2S,4R)—N-[(1S)-1-cyano-2-[2-fluoro-4-[1′-(oxetan-3-yl)spiro[5H-furo[3,4-b]pyridine-7,4′-piperidine]-2-yl]phenyl]ethyl]-3-azabicyclo[2.2.1]heptane-2-carboxamide], the IC50 worked out at 1.6 nM in series [1] and 1.8 nM in series [2]. In addition, the half-life at 1 μM in series [3] was greater than 2.17 h. Moreover, the “Inhibition of neutrophil elastase activity in BALF lysate after the pretreatment with Cathepsin C inhibitor” value in series [4] is listed as 94%.

For `CN1CCC2(CC1)OCc1cnc(-c3ccc(C[C@@H](C#N)NC(=O)[C@H]4N[C@@H]5CC[C@H]4C5)c(F)c3)cc12` [Example 26, (1S,2S,4R)—N-[(1S)-1-cyano-2-[2-fluoro-4-(1′-methylspiro[3H-furo[3,4-c]pyridine-1,4′-piperidine]-6-yl)phenyl]ethyl]-3-azabicyclo[2.2.1]heptane-2-carboxamide], the IC50 in series [1] was 4.6 nM; in series [2] it was 2 nM. The half-life at 1 μM in series [3] came out at 0.917 h.

Turning to `N#C[C@H](Cc1ccc(-c2ccc3c(c2)C2(CCN(C4COC4)CC2)OC3)cc1F)NC(=O)C12CCC(CC1)CN2` [Example 27, N-[(1S)-1-cyano-2-[2-fluoro-4-[1′-(oxetan-3-yl)spiro[1H-isobenzofuran-3,4′-piperidine]-5-yl]phenyl]ethyl]-3-azabicyclo[2.2.2]octane-4-carboxamide], the IC50 in series [1] was 0.7 nM; in series [2], 2.9 nM. In addition, the half-life at 1 μM in series [3] is 2 h.
